Test results taken from US8969389B2, “Substituted 6-methylnicotinamides as mGluR5 positive allosteric modulators” (Vanderbilt University, priority 2010, dated 2015).

biological target: T1, human mGluR5 (Homo sapiens, UniProt P41594); experiment: Potentiation of glutamate response in HEK cells transfected with human mGluR5 (H10H cell line), Ca2+ fluorescence, FDSS; type: cell-based; details: read-out: hmGluR5 EC50 (H10H cell line)
T1 construct: expressed in transfected cells; host or cells: HEK cells, H10H cell line
Experimental: (§1) Human embryonic kidney (HEK) cells transfected with rat mGluR5 were plated in clear bottom assay plates for assay in a Functional Drug Screening System (FDSS). In the alternative assay, HEK cells transfected with human mGluR5 (H10H cell line) were plated for assay in the FDSS. […] The cells were loaded with a Ca^2+-sensitive fluorescent dye (e.g., Fluo-4), and the plates were washed and placed in the FDSS instrument. After establishment of a fluorescence baseline for twelve seconds, the compounds of the present invention were added to the cells, and the response in cells was measured. Five minutes later, an mGluR5 agonist (e.g., glutamate, 3,5-dihydroxyphenylglycine, or quisqualate) was added to the cells, and the response of the cells was measured. Potentiation of the agonist response of mGluR5 by the compounds in the present invention was observed as an increase in response to non-maximal concentrations of agonist (here, glutamate) in the presence of compound compared to the response to agonist in the absence of compound.
(§2) The above described assay operated in two modes. In the first mode, a range of concentrations of the present compounds were added to cells, followed by a single fixed concentration of agonist. If a compound acted as a potentiator, an EC50 value for potentiation and a maximum extent of potentiation by the compound at this concentration of agonist was determined by non-linear curve fitting. In the second mode, several fixed concentrations of the present compounds were added to various wells on a plate, followed by a range of concentrations of agonist for each concentration of present compound; the EC50 values for the agonist at each concentration of compound were determined by non-linear curve fitting. A decrease in the EC50 value of the agonist with increasing concentrations of the present compounds (a leftward shift of the agonist concentration-response curve) is an indication of the degree of mGluR5 potentiation at a given concentration of the present compound. An increase in the EC50 value of the agonist with increasing concentrations of the present compounds (a rightward shift of the agonist concentration-response curve) is an indication of the degree of mGluR5 antagonism at a given concentration of the present compound. The second mode also indicates whether the present compounds also affect the maximum response to mGluR5 to agonists.

T1 sequence (P41594 21-1212): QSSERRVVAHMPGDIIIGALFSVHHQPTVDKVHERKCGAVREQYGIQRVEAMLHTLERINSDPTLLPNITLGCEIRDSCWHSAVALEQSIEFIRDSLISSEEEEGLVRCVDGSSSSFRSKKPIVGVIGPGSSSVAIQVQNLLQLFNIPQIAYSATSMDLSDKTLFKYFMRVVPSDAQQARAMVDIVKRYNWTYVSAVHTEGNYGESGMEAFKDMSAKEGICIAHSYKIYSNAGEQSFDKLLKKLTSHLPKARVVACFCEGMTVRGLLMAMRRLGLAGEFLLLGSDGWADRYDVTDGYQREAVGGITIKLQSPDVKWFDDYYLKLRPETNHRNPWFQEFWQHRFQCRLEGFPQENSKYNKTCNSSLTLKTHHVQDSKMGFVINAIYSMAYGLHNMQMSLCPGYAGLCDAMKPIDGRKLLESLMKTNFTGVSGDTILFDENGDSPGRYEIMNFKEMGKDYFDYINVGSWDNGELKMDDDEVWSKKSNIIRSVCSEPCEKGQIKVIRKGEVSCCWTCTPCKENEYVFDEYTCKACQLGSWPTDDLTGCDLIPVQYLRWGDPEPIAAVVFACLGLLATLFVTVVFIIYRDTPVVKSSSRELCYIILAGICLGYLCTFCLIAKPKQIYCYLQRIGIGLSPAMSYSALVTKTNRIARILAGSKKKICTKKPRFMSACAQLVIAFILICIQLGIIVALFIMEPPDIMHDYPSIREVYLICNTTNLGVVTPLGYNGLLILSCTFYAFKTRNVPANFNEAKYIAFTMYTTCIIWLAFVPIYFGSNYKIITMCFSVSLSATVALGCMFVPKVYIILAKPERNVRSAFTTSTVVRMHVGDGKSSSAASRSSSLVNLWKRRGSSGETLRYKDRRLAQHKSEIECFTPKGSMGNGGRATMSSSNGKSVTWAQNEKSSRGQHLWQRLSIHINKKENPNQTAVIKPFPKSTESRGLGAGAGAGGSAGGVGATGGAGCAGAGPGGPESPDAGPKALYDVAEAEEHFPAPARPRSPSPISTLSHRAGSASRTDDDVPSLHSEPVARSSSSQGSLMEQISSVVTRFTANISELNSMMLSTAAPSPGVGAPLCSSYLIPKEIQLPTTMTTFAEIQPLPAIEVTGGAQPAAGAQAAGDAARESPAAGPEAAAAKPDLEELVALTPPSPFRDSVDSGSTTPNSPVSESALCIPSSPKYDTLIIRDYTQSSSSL

| SMILES | EC50 |
| --- | --- |
| C[C@@H](NC(=O)c1ccc(COc2cncc(F)c2)nc1)C(C)(C)C | > 10 µM |
| CC1(CNC(=O)c2ccc(COc3cccc(F)c3)nc2)COC1 | > 10 µM |
| C[C@@H](NC(=O)c1ccc(COc2cncnc2)nc1)C(C)(C)C | > 10 µM |
| CC(NC(=O)c1ccc(COc2cccc(F)c2)nc1)C1CCCOC1 (stereo not drawn) | 0.44 µM |
| C[C@@H](NC(=O)c1ccc(COc2cncc(C(F)(F)F)c2)nc1)C(C)(C)C | > 10 µM |
| Cc1cc(OCc2ccc(C(=O)N[C@H](C)C(C)(C)C)cn2)ccn1 | > 10 µM |
| C[C@@H](NC(=O)c1ccc(COc2cncc(C(F)(F)F)c2)nc1)C1CCCCC1 | > 10 µM |
| O=C(NC(c1ccccn1)C(F)(F)F)c1ccc(COc2cccc(F)c2)nc1 (stereo not drawn) | > 10 µM |
| O=C(N[C@@H]1C[C@@H]2CC[C@H]1C2)c1ccc(COc2cccc(F)c2)nc1 | > 10 µM |
| C[C@@H](N(C)C(=O)c1ccc(COc2cccc(F)c2)nc1)C(C)(C)C | > 10 µM |
| O=C(NC1(c2ccccn2)CC1)c1ccc(COc2cccc(F)c2)nc1 | > 10 µM |
| O=C(N[C@@H]1C[C@H]2CC[C@@H]1C2)c1ccc(COc2cccc(F)c2)nc1 | 0.17 µM |
| CC(NC(=O)c1ccc(COc2cccc(F)c2)nc1)C1CCCCO1 (stereo not drawn) | 1.9 µM |
| CC(NC(=O)c1ccc(COc2cccc(F)c2)nc1)C(C)(C)O (stereo not drawn) | > 10 µM |
| CC1(O)CC(NC(=O)c2ccc(COc3cccc(F)c3)nc2)C1 (stereo not drawn) | > 10 µM |
| O=C(N[C@H]1C[C@@H]2CC[C@H]1C2)c1ccc(COc2cccc(F)c2)nc1 | 0.55 µM |
| C[C@@H](NC(=O)c1ccc(COc2ccnc(Cl)c2)nc1)C(C)(C)C | 2.3 µM |
| C[C@@H](NC(=O)c1ccc(COc2cncc(Cl)c2)nc1)C1CCCCC1 | > 10 µM |
| C[C@@H](NC(=O)c1ccc(COc2ccnc(Cl)c2)nc1)C1CCCCC1 | 1.5 µM |
| Cc1cc(OCc2ccc(C(=O)N[C@H](C)C3CCCCC3)cn2)ccn1 | > 10 µM |
| C[C@@H](NC(=O)c1ccc(COc2cncc(F)c2)nc1)C1CCCCC1 | 2.7 µM |
| O=C(NC1CC(O)(C(F)(F)F)C1)c1ccc(COc2cccc(F)c2)nc1 (stereo not drawn) [drawing 173] | > 10 µM |
| CC1(CCNC(=O)c2ccc(COc3cccc(F)c3)nc2)COC1 | > 10 µM |
| O=C(NC1CC(O)(C(F)(F)F)C1)c1ccc(COc2cccc(F)c2)nc1 (stereo not drawn) [drawing 172] | > 10 µM |
| CC(NC(=O)c1ccc(COc2cccc(F)c2)nc1)C(F)(F)F (stereo not drawn) | 3.2 µM |
| O=C(N[C@H]1C[C@H]2CC[C@@H]1C2)c1ccc(COc2cccc(F)c2)nc1 | 0.73 µM |
| CC(NC(=O)c1ccc(COc2cccc(F)c2)nc1)c1nccs1 (stereo not drawn) | > 10 µM |
| C[C@@H](NC(=O)c1ccc(COc2cncc(Cl)c2)nc1)C(C)(C)C | > 10 µM |
| C[C@H](NC(=O)c1ccc(COc2cccc(F)c2)nc1)C(C)(C)C [drawing 189] | > 10 µM |
| O=C(NC(c1ccc(F)cc1)C(F)(F)F)c1ccc(COc2cccc(F)c2)nc1 (stereo not drawn) | > 10 µM |

biological target: T2, rat mGluR5 (Rattus norvegicus, UniProt P31424); experiment: Potentiation of glutamate response in HEK cells transfected with rat mGluR5 (Ca2+ fluorescence, FDSS); type: cell-based; details: (R) and (S) enantiomers, Tables 3A/3B; read-out: mGluR5 EC50
T2 construct: expressed in transfected cells; host or cells: HEK (human embryonic kidney) cells
Experimental: as §1, §2

T2 sequence (P31424 21-1203): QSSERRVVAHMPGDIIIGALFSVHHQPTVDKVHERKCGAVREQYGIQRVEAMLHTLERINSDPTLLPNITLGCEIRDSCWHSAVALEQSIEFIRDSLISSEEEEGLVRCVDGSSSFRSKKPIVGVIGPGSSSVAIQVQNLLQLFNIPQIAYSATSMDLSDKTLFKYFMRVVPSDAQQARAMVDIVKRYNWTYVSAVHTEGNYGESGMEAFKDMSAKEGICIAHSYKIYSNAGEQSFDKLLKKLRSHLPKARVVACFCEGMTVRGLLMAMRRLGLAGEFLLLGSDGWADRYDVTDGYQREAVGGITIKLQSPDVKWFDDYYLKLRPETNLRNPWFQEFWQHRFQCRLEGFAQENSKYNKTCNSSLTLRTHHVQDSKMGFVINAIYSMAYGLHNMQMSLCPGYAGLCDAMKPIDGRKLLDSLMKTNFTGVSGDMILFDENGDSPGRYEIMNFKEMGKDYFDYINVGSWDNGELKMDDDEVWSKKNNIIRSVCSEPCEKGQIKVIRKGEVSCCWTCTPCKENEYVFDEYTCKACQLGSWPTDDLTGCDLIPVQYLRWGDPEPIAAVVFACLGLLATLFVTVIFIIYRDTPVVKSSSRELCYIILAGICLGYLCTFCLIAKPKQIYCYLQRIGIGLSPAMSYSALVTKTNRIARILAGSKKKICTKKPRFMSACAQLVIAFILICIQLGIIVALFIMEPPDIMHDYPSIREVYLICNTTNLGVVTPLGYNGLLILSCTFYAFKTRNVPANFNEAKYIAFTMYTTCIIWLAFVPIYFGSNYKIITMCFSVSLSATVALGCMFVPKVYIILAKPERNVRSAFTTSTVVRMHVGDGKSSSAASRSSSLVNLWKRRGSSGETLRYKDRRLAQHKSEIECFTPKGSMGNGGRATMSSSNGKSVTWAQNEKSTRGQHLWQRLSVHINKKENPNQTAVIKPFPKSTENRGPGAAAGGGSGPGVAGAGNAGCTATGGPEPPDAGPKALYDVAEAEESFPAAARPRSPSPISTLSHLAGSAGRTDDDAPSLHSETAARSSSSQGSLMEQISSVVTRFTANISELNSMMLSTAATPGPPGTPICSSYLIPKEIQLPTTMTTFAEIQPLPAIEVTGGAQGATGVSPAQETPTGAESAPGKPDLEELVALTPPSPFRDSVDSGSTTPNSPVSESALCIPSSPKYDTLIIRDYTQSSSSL

| SMILES | EC50 |
| --- | --- |
| C[C@@H](NC(=O)c1ccc(COc2cccc(F)c2)nc1)C1CCCCC1 [Example 11a, (R)-N-(1-cyclohexylethyl)-6-((3-fluorophenoxy)methyl)nicotinamide] | 0.13 µM |

same assay, conditions: HEK cells transfected with rat mGluR5; read-out: rmGlu5 PAM EC50

| SMILES | EC50 |
| --- | --- |
| COc1ccccc1OCc1ccc(C(=O)N[C@H](C)C2CCCCC2)cn1 | 3.4 µM |
| O=C(Nc1ccc(Cl)cc1F)c1ccc(COc2ccccc2)nc1 | > 10 µM |
| CC1(C)CC(CNC(=O)c2ccc(COc3cccc(F)c3)nc2)CCO1 (stereo not drawn) | > 10 µM |
| O=C(Nc1cccc(Cl)c1)c1ccc(COc2ccccc2)nc1 | > 10 µM |
| CN(C)CCCNC(=O)c1ccc(COc2ccccc2)nc1 | > 10 µM |
| COc1cccc(OCc2ccc(C(=O)N[C@H](C)C3CCCCC3)cn2)c1 | 1.2 µM |
| O=C(NC1C2CC3CC(C2)CC1C3)c1ccc(COc2ccccc2)nc1 (stereo not drawn) | 0.288 µM |
| CC(C)CNC(=O)c1ccc(COc2ccccc2)nc1 | 1.7 µM |
